Entries after “also recorded” stand apart in the source; their conditions may differ.

A short description of series [1]: Standard laboratory biodegradation tests (OECD 301A, 301B, 301D, 301E, 306). The conditions noted are these: 301E and OECD 306 seawater test. An excerpt:
The above Log K values show the dramatically greater chelation strength of EDTA as compared to HEIDA. One would expect that the chelating agent with the greatest metal ion affinity (in this case, EDTA) would have the better performance for removing the soil containing Ca, Mg, and Fe3+.

A short description of series [2]: ASTM D5343 cleaning performance of ceramic tile cleaners (number of strokes). As to conditions: ASTM D5343 tile cleaning test. The method, then: Cleaning formulations are prepared to contain the following (by weight): 2.62% Sodium dodecylbenzene sulfonic acid, 2.62% cocoamidopropyl betaine (Lonzaine C), 2.62% ethylene glycol butyl ether (Dowanol EB™), 3.2% of the chelant salt (except for the blank, which contains all components except the chelant), and the balance water. Thus the formulation of Example 31 contains 3.2% by weight of the chelant salt (in this case, K2HEIDA), and so on for Examples 32 and 33 which evaluate (K)1.8(Na)0.2(HEIDA), and (K)1.6(Na)0.4(HEIDA), respectively, as well as Comparative Examples 27-30 which evaluate the formulations containing Na4EDTA, Na2HEIDA, K4EDTA, and (K)1.0(Na)1.0(HEIDA), respectively.
The cleaning ability of these compositions is determined according to ASTM D5343, “Standard Guide for Evaluating Cleaning Performance of Ceramic Tile Cleaners:” using soiled white bathroom tiles as directed by the procedure. […] 10 ml of the cleaning formulation is placed on the face of a pre-moistened sponge, then the number of strokes (under 454 grams of force) are determined to achieve soil removal of 90% or greater. The number of strokes required by each formulation to obtain 90% or greater soil removal is recorded for each cleaning formulation.

Series [3] is described as follows: CSMA DCC-16 scrubber test for removal of lime soap (panel rating). As to conditions: panel scale 0 to 5; 1 gram cleaning solution, 30 seconds, 6 cycles at 454 grams of force; formulation with 3.2% chelant salt. An excerpt: Black ceramic tiles (meeting ANSI standard A371.1, 4¼″ square) are soiled as directed by the procedure described in […] Specialties Manufacturers Association DCC-16, (CSMA Detergents Division Test Methods Compendium—Third Edition—May 1995—Pages I-51 to I-55) “Guidelines for Evaluating the Efficacy of Bathroom Cleaners, Part 2: Scrubber Test for Measuring the Removal of Lime Soap.”. The principal metals present in the soil mixture used in the tile cleaning test are calcium, followed by magnesium, present as their highly insoluble stearate salts (soap scum). Cleaning solution formulations are prepared as described in the previous example. To the surface of the soiled tiles on the scrubbing apparatus, 1 gram of cleaning solution is sprayed and allowed to stand for 30 seconds. The tile is then scrubbed with a pre-moistened sponge with 454 grams of force for 6 cycles (total of 12 passes over the soiled tile). The tile is then rinsed with water and allowed to air dry. Panelists judge the cleanliness of the tiles on a scale from 0 to 5 (with “0” for completely dirty and “5” for completely cleaned), and the results of the observations are averaged.

The nature of series [4]: Calcium oxalate titration. The series is classed as physicochemical. The conditions noted are these: pH about 11.6; titrated with 0.5 M CaCl2 to first faint permanent turbidity. An excerpt: The primary metal present in the standard ASTM soil is calcium. One method of estimating the calcium control performance of a chelating agent is to perform a calcium titration that utilizes the tendency to produce a calcium precipitate when a given amount of chelant can no longer control any additional added calcium, thus producing a visible precipitate. Using such a titration test, one normally deems the best chelants for calcium control as those that accept the most calcium before the precipitate appears per a given unit of chelating agent. A standard titration test often employed to determine a chelant's calcium control effectiveness is the calcium oxalate titration. In this titration, standard calcium chloride titrant is added to a measured amount of chelating agent and the onset of calcium oxalate precipitate (detected as the first permanent turbidity that forms) defines the amount of calcium that can be controlled. Strong chelants accept a mole-for-mole amount of calcium, while weaker chelants will accept less than a mole-for-mole amount of calcium in this titration. […]

For series [5] the following is noted: overall constant, log of [metal complex]/([free metal][free ligand]); cited from earlier work.
The conditions of series [6]: overall constant, log of [metal complex]/([free metal][free ligand]); cited from earlier work. The source holds these as a separate data set.
The conditions of series [7]: overall constant, log of [metal complex]/([free metal][free ligand]); cited from earlier work. The source holds these as a separate data set.

Turning to `O=C([O-])CN(CCO)CC(=O)[O-].[K+].[K+]` [Example K2HEIDA], the biodegradability entry in series [1] was “readily biodegradable”. Also, the “cleaning performance compared in words” value in series [2] was “equal performance; also recorded: performs equally as well as K4EDTA”. In series [3], the “Cleaning rating (higher is better)” value is 4.67 (+/−0.26).

In the case of `O=C([O-])CN(CCN(CC(=O)[O-])CC(=O)[O-])CC(=O)[O-].[K+].[K+].[K+].[K+]` [Example K4EDTA], in series [3], the “Cleaning rating (higher is better)” value was 3.60 (+/−0.13).

With `O=C(O)CN(CCN(CC(=O)O)CC(=O)O)CC(=O)O` [EDTA, ethylene diamine tetraacetate], the “% Molar Chelation of calcium (max. = 100)” value in series [4] is listed as 100%. Further, the “Log K Fe3+” value in series [5] was 25.1. Further, in series [6], the “Log K Mg” value is listed as 8.7. Also, in series [7], the “Log K Ca” value was 10.7.

The values are drawn from patent US8034756B2, “Formulations with unexpected cleaning performance incorporating a biodegradable chelant” (Dow Global Technologies LLC, priority 2006, dated 2011).
